Results published in patent US8008303B2, “Biphenyl derivatives and their use in treating hepatitis C” (AstraZeneca AB, priority 2005, dated 2011).
Read-outs that look alike come from different tables or passages of the source.

Key:
[1] = system: HCV replicon cells Huh 9B; type: cell-based
[2] = system: HCV replicon cells Huh 9B; experiment: HCV replicon assay (luciferase readout); type: cell-based
In short: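 Compounds, made up at twice final strength (final DMSO 1%), were added to subgenomic replicon cells one day after plating. Incubation then ran 72 h at 37 °C, 5% CO2, without G418. Replication was quantified as firefly luciferase luminescence in lysed cells, with cytotoxicity assessed on a duplicate clear plate.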

[3] = concentration reducing total cell area by 50% relative to DMSO controls, methylene blue, absorbance 620 nm, 72 h incubation
[4] = Hepatitis C virus, 72 h, concentration reducing replicon level (luciferase activity) by 50% vs untreated cell control, 72 h incubation

Compound | TD50 [1, 3] | IC50 [2, 4] [µM] | TD50 [1] | IC50 [2] [µM]
CNCC(=O)Nc1ccc(OC(F)(F)F)c(-c2ccc(C(=O)Nc3ccc(CN4CCN(S(=O)(=O)N(C)C)CC4)cc3)cc2)c1 [Example 240, 5′-(2-Methylamino-acetylamino)-2′-trifluoromethoxy-biphenyl-4-carboxylic acid [4-(4-dimethylsulfamoyl-piperazin-1-ylmethyl)-phenyl]-amide] | * (* < 50 μM) | < 1 | – | –
CS(=O)(=O)N1CCN(Cc2ccc(NC(=O)c3ccc(-c4cc(NC(=O)[C@@H]5CCN5C(=O)O)ccc4OC(F)(F)F)cc3)cc2)CC1 [Example 241, (S)-2-{4′-[4-(4-Methanesulfonyl-piperazin-1-ylmethyl)-phenylcarbamoyl]-6-trifluoromethoxy-biphenyl-3-ylcarbamoyl}-azetidine-1-carboxylic acid] | * (* < 50 μM) | < 1 | – | –
Cc1ccc(NC(=O)C2CCCCC2)cc1-c1ccc(C(=O)Nc2ccc(CCN3CCS(=O)(=O)CC3)cc2)cc1 [Example 242, 5′-(Cyclohexanecarbonyl-amino)-2′-methyl-biphenyl-4-carboxylic acid {4-[2-(1,1-dioxo-1lambda*6*-thiomorpholin-4-yl)-ethyl]-phenyl}-amide] | * (* < 50 μM) | 1 to 5 | – | –
CCCS(=O)(=O)N1CCN(Cc2ccc(NC(=O)c3ccc(-c4cc(NC(=O)C5CC5)ccc4C)cc3)cc2)CC1 [Example 243, 5′-(Cyclopropanecarbonyl-amino)-2′-methyl-biphenyl-4-carboxylic acid [4-(4-propane-1-sulfonyl-piperazin-1-ylmethyl)-phenyl]-amide] | * (* < 50 μM) | < 1 | – | –
COc1ccc(S(=O)(=O)Nc2ccc(N3CCOCC3)cc2)cc1-c1ccc(C(=O)Nc2ccc(CN3CCS(=O)(=O)CC3)cc2)cc1 [Example 244, 2′-Methoxy-5′-(4-morpholin-4-yl-phenylsulfamoyl)-biphenyl-4-carboxylic acid [4-(1,1-dioxo-1lambda*6*-thiomorpholin-4-ylmethyl)-phenyl]-amide] | * (* < 50 μM) | < 1 | – | –
COc1ccc(S(=O)(=O)Nc2ccc(N3CCOCC3)cc2)cc1-c1ccc(C(=O)Nc2ccc(CN3CCN(S(C)(=O)=O)CC3)cc2)cc1 [Example 245, 2′-Methoxy-5′-(4-morpholin-4-yl-phenylsulfamoyl)-biphenyl-4-carboxylic acid [4-(4-methanesulfonyl-piperazin-1-ylmethyl)-phenyl]-amide] | * (* < 50 μM) | < 1 | – | –
COc1ccc(S(=O)(=O)Nc2ccc(N3CCOCC3)cc2)cc1-c1ccc(C(=O)Nc2ccc(CN3CCN(S(=O)(=O)C(C)C)CC3)cc2)cc1 [Example 246, 2′-Methoxy-5′-(4-morpholin-4-yl-phenylsulfamoyl)-biphenyl-4-carboxylic acid [4-(4-propane-2-sulfonyl-piperazin-1-ylmethyl)-phenyl]-amide] | * (* < 50 μM) | < 1 | – | –
COc1ccc(S(=O)(=O)Nc2ccc(N3CCOCC3)cc2)cc1-c1ccc(C(=O)Nc2ccc(CN3CCN(S(=O)(=O)N(C)C)CC3)cc2)cc1 [Example 247, 2′-Methoxy-5′-(4-morpholin-4-yl-phenylsulfamoyl)-biphenyl-4-carboxylic acid [4-(4-dimethylsulfamoyl-piperazin-1-ylmethyl)-phenyl]-amide] | * (* < 50 μM) | < 1 | – | –
CCCS(=O)(=O)N1CCN(Cc2ccc(NC(=O)c3ccc(-c4cc(S(=O)(=O)Nc5ccc(N6CCOCC6)cc5)ccc4OC)cc3)cc2)CC1 [Example 248, 2′-Methoxy-5′-(4-morpholin-4-yl-phenylsulfamoyl)-biphenyl-4-carboxylic acid [4-(4-propane-1-sulfonyl-piperazin-1-ylmethyl)-phenyl]-amide] | * (* < 50 μM) | < 1 | – | –
CN1CCN(Cc2ccc(NC(=O)c3ccc(-c4cc(NC(=O)C5CCCCC5)ccc4Cl)cc3)cc2)CC1 [Example 249, 2′-Chloro-5′-(cyclohexanecarbonyl-amino)-biphenyl-4-carboxylic acid [4-(4-methyl-piperazin-1-ylmethyl)-phenyl]-amide] | * (* < 50 μM) | 1 to 5 | – | –
CS(=O)(=O)N1CCN(Cc2ccc(NC(=O)c3ccc(-c4cc(NC(=O)[C@H]5CCCN5)ccc4Cl)cc3)cc2)CC1 [Example 250, (R)-Pyrrolidine-2-carboxylic acid {6-chloro-4′-[4-(4-methanesulfonyl-piperazin-1-ylmethyl)-phenylcarbamoyl]-biphenyl-3-yl}-amide] | * (* < 50 μM) | < 1 | – | –
CCCS(=O)(=O)N1CCN(Cc2ccc(NC(=O)c3ccc(-c4cc(NC(=O)[C@H]5CCCCN5)ccc4Cl)cc3)cc2)CC1 [Example 251, (R)-Piperidine-2-carboxylic acid {6-chloro-4′-[4-(4-(propane-1-sulfonyl)-piperazin-1-ylmethyl)-phenylcarbamoyl]-biphenyl-3-yl}-amide] | * (* < 50 μM) | < 1 | – | –
CNCC(=O)Nc1ccc(Cl)c(-c2ccc(C(=O)Nc3ccc(CN4CCN(S(C)(=O)=O)CC4)cc3)cc2)c1 [Example 252, 2′-Chloro-5′-(2-methylamino-acetylamino)-biphenyl-4-carboxylic acid [4-(4-methanesulfonyl-piperazin-1-ylmethyl)-phenyl]-amide] | * (* < 50 μM) | < 1 | – | –
CCCS(=O)(=O)N1CCN(Cc2ccc(NC(=O)c3ccc(-c4cc(NC(=O)NC5CCCCC5)ccc4Cl)cc3)cc2)CC1 [Example 253, 2′-Chloro-5′-(3-cyclohexyl-ureido)-biphenyl-4-carboxylic acid {4-[4-(propane-1-sulfonyl)-piperazin-1-ylmethyl]-phenyl}-amide] | * (* < 50 μM) | < 1 | – | –
CC(C)S(=O)(=O)N1CCN(Cc2ccc(NC(=O)c3ccc(-c4cc(NC(=O)NC5CCCCC5)ccc4Cl)cc3)cc2)CC1 [Example 254, 2′-Chloro-5′-(3-cyclohexyl-ureido)-biphenyl-4-carboxylic acid {4-[4-(propane-2-sulfonyl)-piperazin-1-ylmethyl]-phenyl}-amide] | * (* < 50 μM) | < 1 | – | –
CN(C)S(=O)(=O)N1CCN(Cc2ccc(NC(=O)c3ccc(-c4cc(NC(=O)NC5CCCCC5)ccc4Cl)cc3)cc2)CC1 [Example 255, 2′-Chloro-5′-(3-cyclohexyl-ureido)-biphenyl-4-carboxylic acid [4-(4-dimethylsulfamoyl-piperazin-1-ylmethyl]-phenyl}-amide] | * (* < 50 μM) | < 1 | – | –
CS(=O)(=O)N1CCN(Cc2ccc(NC(=O)c3ccc(-c4cc(C(=O)Nc5ccc(N6CCOCC6)cc5)ccc4OC(F)(F)F)cc3)cc2)CC1 [Example 256, 6-Trifluoromethoxy-biphenyl-3,4′-dicarboxylic acid 4′-{[4-(4-methanesulfonyl-piperazin-1-ylmethyl)-phenyl]-amide} 3-[(4-morpholin-4-yl-phenyl)-amide]] | – | – | * (key: * < 50 μM; ** > 50 μM) | < 1
CCCS(=O)(=O)N1CCN(Cc2ccc(NC(=O)c3ccc(-c4cc(C(=O)Nc5ccc(N6CCOCC6)cc5)ccc4OC)cc3)cc2)CC1 [Example 257, 6-Methoxy-biphenyl-3,4′-dicarboxylic acid 3-[(4-morpholin-4-yl-phenyl)-amide] 4′-({4-[4-(propane-1-sulfonyl)-piperazin-1-ylmethyl]-phenyl}-amide)] | * (* < 50 μM) | – | – | < 1
COc1ccc(C(=O)Nc2ccc(N3CCOCC3)cc2)cc1-c1ccc(C(=O)Nc2ccc(CN3CCN(S(=O)(=O)C(C)C)CC3)cc2)cc1 [Example 258, 6-Methoxy-biphenyl-3,4′-dicarboxylic acid 3-[(4-morpholin-4-yl-phenyl)-amide] 4′-({4-[4-(propane-2-sulfonyl)-piperazin-1-ylmethyl]-phenyl}-amide)] | * (* < 50 μM) | – | – | < 1
COc1ccc(C(=O)Nc2ccc(N3CCOCC3)cc2)cc1-c1ccc(C(=O)Nc2ccc(CN3CCN(S(=O)(=O)N(C)C)CC3)cc2)cc1 [Example 259, 6-Methoxy-biphenyl-3,4′-dicarboxylic acid 4′-{[4-(4-dimethylsulfamoyl-piperazin-1-ylmethyl)-phenyl]-amide} 3-[(4-morpholin-4-yl-phenyl)-amide]] | – | – | * (key: * < 50 μM; ** > 50 μM) | < 1
CCCS(=O)(=O)N1CCN(Cc2ccc(NC(=O)c3ccc(-c4cc(C(=O)Nc5ccc(N6CCOCC6)cc5C)ccc4OC)cc3)cc2)CC1 [Example 260, 6-Methoxy-biphenyl-3,4′-dicarboxylic acid 3-[(2-methyl-4-morpholin-4-yl-phenyl)-amide] 4′-({4-[4-(propane-1-sulfonyl)-piperazin-1-ylmethyl]-phenyl}-amide)] | * (* < 50 μM) | – | – | < 1
COc1ccc(C(=O)Nc2ccc(N3CCS(=O)(=O)CC3)cc2)cc1-c1ccc(C(=O)Nc2ccc(N3CCN(C)CC3)cc2)cc1 [Example 261, 6-Methoxy-biphenyl-3,4′-dicarboxylic acid 3-{[4-(4-(1,1-dioxo-1lambda*6*-thiomorpholin-4-yl)-phenyl]-amide} 4′-{[4-(4-methyl-piperazin-1-yl)-phenyl]-amide}] | – | – | * (key: * < 50 μM; ** > 50 μM) | 1 to 5
CCCCS(=O)(=O)N1CCN(Cc2ccc(NC(=O)c3ccc(-c4cc(C(=O)Nc5ccc(N6CCOCC6)cc5)ccc4Cl)cc3)cc2)CC1 [Example 263, 6-Chloro-biphenyl-3,4′-dicarboxylic acid 4′-({4-[4-(butane-1-sulfonyl)piperazin-1-ylmethyl]-phenyl}-amide) 3-[(4-morpholin-4-yl-phenyl)-amide]] | – | – | * (key: * < 50 μM; ** > 50 μM) | < 1
